This is an account of results in the supplement of paper PMC10307832.

Compound in this test: CCc1cnn2c(NCc3ccc[n+]([O-])c3)cc(N3CCCC[C@H]3CCO)nc12 [Dinaciclib] + Cc1nc(NC(=O)N2CCC[C@H]2C(N)=O)sc1-c1ccnc(C(C)(C)C(F)(F)F)c1 [Alpelisib] (partner 2 µM)
The experiment in a line: relative viability (nuclei count vs DMSO), 5 days (fraction); higher = more cells survive. Summed up:
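Nuclei were stained with Hoechst during a one-step fixation (final 0.05% Triton X-100, 1% formaldehyde, 1 ug/ml Hoechst) carried out 5 days after dosing, then counted on 4× images. The cells, lung cancer lines in 1536-well plates, had been dosed by pin tool the day after seeding with one drug alone or a fixed anchor-drug dose plus five library-drug doses (not always all listed) in √10 steps. Relative viability is the nuclei count in treated wells divided by that in vehicle wells, and each value is the median of duplicate plates.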

For EKVX, the relative viability by setting is: (first compound 0.009487 µM) 0.862; (first compound 0.03 µM) 0.449; (first compound 0.09487 µM) 0.11; (first compound 0.3 µM) 0.122.
Taken in the same sequence, the figures for HARA were 0.72, 0.0726, 0.0663 and 0.0442.
The like results for EMC-BAC-2 were, in that order, 0.765, 0.227, 0.113 and 0.112.
The like results for PC-14 were, in that order, 0.947, 0.515, 0.0838 and 0.0509.
For the cell line NCI-H520, the relative viability (first compound 0.009487 µM) was 0.601, the relative viability (first compound 0.03 µM) came out at 0.148, the relative viability (first compound 0.09487 µM) came out at 0.141 and the relative viability (first compound 0.3 µM) amounted to 0.147.
Taken in the same sequence, the figures for NCI-H1755 were 0.852, 0.241, 0.158 and 0.169.
The like results for NCI-H2087 were, in that order, 0.843, 0.144, 0.121 and 0.116.
Taken in the same sequence, the figures for NCI-H2023 were 0.538, 0.25, 0.064 and 0.0614.
On to CAL-12T, for which the relative viability (first compound 0.009487 µM) stood at 0.443, the relative viability (first compound 0.03 µM) was 0.128, the relative viability (first compound 0.09487 µM) was 0.0835 and the relative viability (first compound 0.3 µM) is 0.115.
On to NCI-H2085, for which the relative viability runs as follows: (first compound 0.009487 µM) 0.976; (first compound 0.03 µM) 0.346; (first compound 0.09487 µM) 0.228; (first compound 0.3 µM) 0.258.
NCI-H650: the relative viability runs as follows: (first compound 0.009487 µM) 1.21; (first compound 0.03 µM) 0.192; (first compound 0.09487 µM) 0.165; (first compound 0.3 µM) 0.176.
For LCLC-97TM1, the relative viability (first compound 0.009487 µM) came to 0.197, the relative viability (first compound 0.03 µM) came to 0.129, the relative viability (first compound 0.09487 µM) is 0.121 and the relative viability (first compound 0.3 µM) came out at 0.107.
Taken in the same sequence, the figures for NCI-H2126 were 0.732, 0.399, 0.209 and 0.196.
The like results for 201T were, in that order, 1.11, 0.829, 0.288 and 0.284.
The like results for NCI-H1915 were, in that order, 0.866, 0.202, 0.108 and 0.108.
BEN: the relative viability reads like this: (first compound 0.009487 µM) 1.24; (first compound 0.03 µM) 0.517; (first compound 0.09487 µM) 0.207; (first compound 0.3 µM) 0.236.
The like results for NCI-H2347 were, in that order, 0.986, 0.324, 0.274 and 0.222.
Taken in the same sequence, the figures for H3255 were 0.716, 0.352, 0.15 and 0.141.
NCI-H441: the relative viability (first compound 0.009487 µM) came to 0.594, the relative viability (first compound 0.03 µM) came out at 0.128, the relative viability (first compound 0.09487 µM) came to 0.147 and the relative viability (first compound 0.3 µM) came out at 0.15.
The like results for NCI-H2228 were, in that order, 0.548, 0.122, 0.108 and 0.119.
The like results for NCI-H1975 were, in that order, 0.473, 0.118, 0.112 and 0.147.
On to NCI-H647, for which the relative viability stood at 0.585 (first compound 0.009487 µM), 0.055 (first compound 0.03 µM), 0.0588 (first compound 0.09487 µM) and 0.0651 (first compound 0.3 µM).
A-427: the relative viability reads like this: (first compound 0.009487 µM) 1.11; (first compound 0.03 µM) 0.138; (first compound 0.09487 µM) 0.0763; (first compound 0.3 µM) 0.067.
Taken in the same sequence, the figures for LXF-289 were 1.01, 0.264, 0.0715 and 0.0695.
Taken in the same sequence, the figures for NCI-H727 were 0.488, 0.159, 0.163 and 0.164.
The like results for NCI-H1437 were, in that order, 0.87, 0.182, 0.0937 and 0.094.
As for RERF-LC-KJ, the relative viability was 0.826 (first compound 0.009487 µM), 0.41 (first compound 0.03 µM), 0.154 (first compound 0.09487 µM) and 0.161 (first compound 0.3 µM).
Take NCI-H1792: the relative viability (first compound 0.009487 µM) came out at 0.732, the relative viability (first compound 0.03 µM) is 0.289, the relative viability (first compound 0.09487 µM) came out at 0.118 and the relative viability (first compound 0.3 µM) stood at 0.0656.
Taken in the same sequence, the figures for HCC-44 were 0.677, 0.095, 0.133 and 0.118.
Taken in the same sequence, the figures for EPLC-272H were 0.828, 0.542, 0.0754 and 0.0887.
The like results for IA-LM were, in that order, 0.669, 0.0488, 0.0282 and 0.0261.
Turning to NCI-H358, the relative viability reads like this: (first compound 0.009487 µM) 0.61; (first compound 0.03 µM) 0.14; (first compound 0.09487 µM) 0.161; (first compound 0.3 µM) 0.183.
Taken in the same sequence, the figures for NCI-H596 were 0.517, 0.426, 0.105 and 0.154.
Taken in the same sequence, the figures for NCI-H322M were 0.737, 0.718, 0.196 and 0.211.
Taken in the same sequence, the figures for NCI-H1563 were 1.09, 0.459, 0.388 and 0.302.
